Test results reported in patent EP2623117A1, “Immunogenic nanomedicine composition and preparation and uses thereof” (Genetic Immunity Kft., priority 2009, dated 2010).

How the values were obtained:
[1] = Side reaction of formulation solvent with PEIm (UV spectra after storage); format: physicochemical; conditions: room temperature, 2 month
Procedure: • a) NanoComp formulations were prepared according to Example 1, using the same PEIm and pDNA at N/P ratio of 3, and different solvents: sterile water, physiological NaCl (0.9%), D(+)-Mannitol (10 mg/ml), Sorbitol (10 mg/ml), D(+)-Glucose (10 mg/ml), Mannose (10 mg/ml), Sucrose (10 mg/ml), Triethanolamine buffer (TEA) (pH 7.5), D(+)-Mannitol (10 mg/ml) in triethanolamine (TEA) buffer (pH 7.5), Sorbitol (10 mg/ml) in triethanolamine buffer (pH 7.5) and D(+)-Mannitol (10 mg/ml) and Glycerol (10 mg/ml) in triethanolamine buffer (pH 7.5). The biological activity is given procentual related to the biological activity of the formulation in sterile water. Results are shown in Fig. 7A. • b) PEIm solution, mixture of PEIm with Glucose (10%) and Mannitol (10%) respectively, NanoComp formulations with Glucose (10%) and Mannitol (10%) were prepared according to Example 1, the missing component in all mixtures were replaced with water, to ensure the same concentration of the components. The prepared solutions were stored at room temperature (approx. 25°C) for 2 month. UV spectra were recorded without dilution. […] The particle size of the formed complexes was measured using ZetaPALS, Brookehaven instrument freshly and after 6 days storage at room temperature.

[2] = test system: 293T human cells; assay: In vitro biological activity assay: transfection of 293T cells, HIV-1 p24 antigen ELISA of supernatant; format: cell-based; conditions: N/P ratio of 3
Procedure: The in vitro biological activity test of the NanoComp is performed by transfection of 293T human cells. 50,000 cells are plated in 96 well plate 19 hours before transfection, using DMEM culture medium (DMEM, 1% FBS, 1% L-glutamine, 1% Penicillin-Streptomycin). 0.5µg pDNA/NanoComp is added to each well followed by 21 hours incubation at 37°C in 5% CO2 air condition. During the incubation period, the HIV-specific protein antigens encoded by the pDNA are expressed and secreted into the culture medium. After 21 hours, the supernatant of the cells are collected, and HIV-1 p24 antigen ELISA is performed to quantify p24 protein produced by the pDNA.

In the case of `OC[C@@H](O)[C@@H](O)[C@H](O)[C@H](O)CO` [mannitol, D(+)-Mannitol], the “side reaction of solvent with PEIm over time” value [1] is reported as “without side reactions with PEIm” and the “effect of solvent on the biological activity of the NanoComp compared to sterile water” value [2] is reported as “same improving effect on the biological activity”.
